Experimental data published in patent US20140155445A1, “Compounds and Methods for Treating Cancer and Diseases of the Central Nervous System” (Osta Biotechnologies Inc., priority 2007, published 2014).
Entries after “also recorded” stand apart in the source; their conditions may differ. Like-named read-outs stand apart in the source and are kept apart here.

What was measured:
[1] = tested on: hHO-1 transfected primary rat astroglial cultures; assay: Protein carbonyl ELISA in hHO-1-transfected primary rat astroglia (whole-cell and mitochondrial compartments); format: cell-based
Method: Cells were grown in Ham's F12 and high glucose DMEM (50:50 v/v) supplemented with 10 mM HEPES, 5% heat-inactivated horse serum, 5% heat-inactivated fetal bovine serum, and penicillin-streptomycin (50 U/mL and 50 μg/mL, respectively).
Upon reaching >90% confluence, 1×10^6 cells were transiently transfected with 4.0 μg of plasmid DNA-Lipofectamine 2000 complex using Lipofectamine 2000 method according to manufacturer instructions (Invitrogen). […] 12 μg of plasmid DNA and 16 μl of Lipofectamine 2000 reagent were diluted in 1.5 mL opti-MEM I reduced serum medium and incubated for 5 minutes at room temperature with gentle mixing. The two solutions were combined, incubated at room temperature for 20 minutes to promote formation of DNA-lipid complexes and administered to the cells. 2 mL opti-MEM I reduced serum medium was added to the flasks to ensure coverage of the monolayer by the transfection mixture. Following incubation for 6 hours at 37° C., the transfection mixture was replaced with 10 mL of complete media without antibiotics.
The cells were sonicated (Sonics & Materials, Danbury, Conn.) at a power level of 50 for 3×20 s in a cooled water bath. […] Whole-cell and mitochondrial preparations were assayed for protein carbonyls as described below.
Protein carbonyls were reacted with 2,4-dinitrophenylhydrazine (DNP) and the hydrazone adducts were detected with anti-DNP antisera. Quantification was achieved by comparison with oxidized BSA standards. Oxidized (carbonylated) BSA was prepared by reacting natural BSA (at 50 mg/mL in PBS) with hypochlorous acid (5 mM) for 1 h at 37° C., followed by overnight dialysis against PBS at 4° C. […] The pellet was resuspended in 2 mL of same buffer, sonicated on ice 2×15 s at 20 W and centrifuged for 20 min at 4° C. at 1,303×g. Protein concentration of supernatant was measured with the RC DC protein assay based on the Lowry protocol (Bio-Rad Laboratories, Hercules, Calif.). All samples were adjusted to 4.0 mg protein/mL. […] Five microliters aliquots of each reaction mixture were mixed with 1 mL PBS and 200 μL replicates were added per well to 96-well immunoplates and incubated overnight at 4° C. After washing with PBS, nonspecific binding sites were blocked with 0.1% Tween 20 in PBS. […] A 6-point standard curve of reduced and oxidized BSA was generated for each plate analyzed. Specific absorbance for each sample was calculated by subtracting basal absorbance of the DNP reagent from the total absorbance.

[2] = tested on: PC-3 (human prostate carcinoma); assay: Prostate carcinoma model PC-3 in SCID mice
Source text: • Species and strain: Mouse (Mus musculus); female SCID (MDA231 and OVCAR3), male SCID (PC-3, HCT116); male CD57 B16 mice (BL16-BL6) • Age: 6-8 weeks old. • Supplier: Charles River Laboratories, Inc., St-Constant, Quebec, Canada. • Acclimation: Mice were acclimated to laboratory conditions for approximately 1 week prior to tumor cell inoculation. • Identification: Mice were identified by ear punch combination. • Housing: Mice were housed in groups of 3-5 in a designated animal facility with a temperature of 22° C., a relative humidity of 40-50%, and a 12 hr light/dark cycle.
PC-3 (human prostate carcinoma). These cells were originally received from the ATCC. Early passage cells (tested free of mycoplasma) were grown to 60% confluence in DMEM medium supplemented with 10% fetal bovine serum, and antibiotics. Cell harvesting was performed using trypsin-EDTA solution.
Exponentially growing cells were harvested using trypsin-EDTA solution. […] Cell viability was confirmed by trypan blue staining. […] One to 2 millions cells suspended in 0.1 mL phosphate buffer solution was implanted into the mammary fat pad (MCF7) or subcutaneously into the axillary region of the right flank of recipient SCID mice. All animals were inoculated at the same site.
Mice were subjected to general examination on daily basis. […] Control groups received the vehicle alone. Chemotherapy drugs were also given by intraperitoneal route according to the schedule described below.
Primary tumor growth was monitored every second to fourth day using calipers. Relative tumor volume (cm^3) was determined by the formula:
Body weights were monitored every third to fifth day. Animals experiencing signs of discomfort were sacrificed immediately (in some cases they were replaced by spared mice). […] Mice were sacrificed by cervical dislocation and immediately subjected to full autopsy.

[3] = tested on: Panc-1 human pancreatic carcinoma cells; assay: Human pancreatic cancer model Panc-1 in SCID mice; format: in vivo; conditions: 30 and 60 mg/kg i.p.
Source text: Human pancreatic carcinoma cells (“Panc-1 cells”) were originally received from the ATCC (American Type Culture Collection).
(§1) Only those cells with >95% viability were used for in-vivo studies.
(§2) Once tumors reached a size of approximately 0.7 cm^3, they were removed under sterile condition, sliced into small pieces under a stereo-microscope. Each tissue piece was then reinoculated subcutaneously. Only pieces of approximately the same size and with no signs of necrosis were used.
(§3) At the end of the experiment, mice were sacrificed by cervical dislocation and full autopsies were conducted. A picture was taken of tumors from randomly selected mice. The tumors were then fixed in formalin for pathology examination.

[4] = tested on: SKMEL-V human melanoma cells; assay: Human melanoma model SKMEL-V+ in SCID mice (pilot study); format: in vivo
Source text: Human melanoma cells (“SKMEL-V cells”) were derived from SKMEL-24 cells (ATCC) by over expression of mouse VEGF.
as §1, §2, §3

[5] = Pharmacokinetic evaluation of QC-199 in mouse plasma and brain, IP or oral; format: in vivo; conditions: for half-life: from Lambda z; for AUC: read-out: AUCall (0-12); for Cmax: mouse, male CD-1 mice
Method: Regular male CD1 mice, 6 weeks old, were obtained from Charles River Laboratories, St. Zotique, PQ, Canada. The mice weighed 22-28 g. The experiments were approved by the Animal Care Committee, McGill University, Montreal, Quebec. The animals were housed in individual cages and were fed standard rodent chow and water ad libitum. Mice weights were measured with a digital balance accurate to 0.05 g and then received QC-199 at the indicated doses either orally, or via i.p. injections or following i.v. slow infusion. In the case of i.v. injection or i.v. infusion, mice were anesthetized using isoflurane-based system (DISPOMED, MODUFLEX COMPACT NRB, 3975-0800-000). For the infusion, a mini pump (NE-1800, New Era Pump Systems, Inc.) was used to infuse the compound via the tail vein during a 2 h period. In one study, blood and brain tissue samples were collected at various time points after administration of QC-199 using EDTA tubing (Das Original S-Monovette EDTA KE/1.2 ml lot.9094102 and Needle for S-Monovette 22G lot. 8073401) via cardiac puncture and immediately stored at 4° C. Serum was collected after the samples were centrifuged 2200×, 4° C. for 20 minutes and stored at −80° C. until analysis. For the brain tissue collection, skin of mice was removed and brain was carefully dissected out from the skull, transferred into a Petri dish, briefly washed with ice-cold phosphate-buffered saline (PBS), and immediately stored at −80° C. until further analysis.
The assay of QC-199 in mouse plasma and brain samples was carried out using qualified LC/MS/MS assay methods.

Which “oxidative protein damage (protein carbonyls) accruing from hHO-1 transfection” value ([1]; 6.5 μM) does the source give for `Brc1ccc(CCC2(Cn3ccnc3)OCCO2)cc1.Cl` [QC-56, 1-((2-(2-(4-Bromophenyl)ethyl)-1,3-dioxolan-2-yl)methyl)-1H-imidazole hydrochloride] here?
Its value is “significantly attenuated”.

And the “dose dependence of attenuation of oxidative protein damage” value ([1]; transiently transfected rat astroglia, hydrochloride)?
Its value is “significant dose dependant attenuations; also recorded: in a dose dependent manner significantly decreased; also recorded: significant dose-dependant attenuations”.

And the “Body Weights (g) d8 (mean + SE)” value ([2]; PC-3 mice, treatment day 8)?
Its value is 22.30 ± 7.88 g.

And the “Body Weights (g) d42 (mean + SE)” value ([2]; PC-3 mice, treatment day 42)?
Its value is 18.10 ± 7.38 g.

What about the “inhibition of tumor growth compared to vehicle alone” value ([2]; QC-56 60 mg/kg/ip, Taxol 10 mg/kg) of the same compound?
The value was “approximately 25%”.

What about the anti-tumor activity [3] of the same compound?
Its anti-tumor activity is “not in the pancreatic cancer model Panc-1”.

What about the anti-tumor activity ([4]; 30 and 60 mg/kg i.p.) of the same compound?
The anti-tumor activity was “clear anti-tumor activity”.

And the “tumor volumes vs vehicle alone” value ([4]; QC-56 30 mg/kg (P<0.03) and 60 mg/kg (P<0.02))?
The value was “statistically significantly smaller”.

What about the “potency compared with dacarbazine” value ([4]; QC-56 30 and 60 mg/kg vs dacarbazine 50 mg/kg) of the same compound?
Its value is “significantly more potent than dacarbazine”.

With `Brc1ccc(CCCCn2ccnc2)cc1.Cl` [QC-199, 1-[4-(4-bromophenyl)butyl]-1H-imidazole hydrochloride] as the compound, how does the “% Extrapolated AUC” value ([5]; brain, IP 60 mg/kg) read?
The value was 13%.

And the “AUC(0-inf)” value ([5]; brain, IP 60 mg/kg)?
Its value is 427 µg·h/g.

What about the “AUCall (0-12)” value ([5]; brain, IP 60 mg/kg) of the same compound?
The value was 370 µg·h/g.

What about the “% Extrapolated AUC” value ([5]; brain, Oral 60 mg/kg) of the same compound?
The value was 37%.

And the “AUC(0-inf)” value ([5]; brain, Oral 60 mg/kg)?
The value was 361 µg·h/g.

What about the “AUCall (0-12)” value ([5]; brain, Oral 60 mg/kg) of the same compound?
Its value is 227 µg·h/g.

What about the oral bioavailability ([5]; from oral-to-IP AUC ratios in brain and plasma) of the same compound?
Its oral bioavailability is “moderately high oral bioavailability”.

And the concentration at 5 min ([5]; male, CD-1, mouse, brain, 60 mg/kg, IP or oral administration, above the upper calibration range, read-out: brain tissue concentration at 5 min post-dose)?
The concentration at 5 min was > 10000 ng/g.

What about the half-life ([5]; male, CD-1, mouse, in vivo, ip, 60 mg/kg, brain, IP 60 mg/kg) of the same compound?
The half-life was 258 min.

And the half-life ([5]; male, CD-1, mouse, in vivo, ip, 60 mg/kg, plasma, IP 60 mg/kg)?
The half-life was 288 min.

And the half-life ([5]; male, CD-1, mouse, in vivo, po, 60 mg/kg, brain, Oral 60 mg/kg)?
The half-life was 516 min.

What about the half-life ([5]; male, CD-1, mouse, in vivo, po, 60 mg/kg, plasma, Oral 60 mg/kg) of the same compound?
Its half-life is 426 min.

And the Tmax ([5]; male, CD-1, mouse, in vivo, brain, IP 60 mg/kg)?
The Tmax was 10 min.

And the Tmax ([5]; male, CD-1, mouse, in vivo, brain, Oral 60 mg/kg)?
The Tmax was 10 min.

And the AUC(0-inf) ([5]; male, CD-1, mouse, in vivo, plasma, IP 60 mg/kg, read-out: AUC0-inf)?
The AUC(0-inf) was 85000 ng·h/mL.

What about the AUC ([5]; male, CD-1, mouse, in vivo, plasma, IP 60 mg/kg) of the same compound?
Its AUC is 72000 ng·h/mL.

What about the AUC(0-inf) ([5]; male, CD-1, mouse, in vivo, plasma, Oral 60 mg/kg, read-out: AUC0-inf) of the same compound?
Its AUC(0-inf) is 67000 ng·h/mL.

And the AUC ([5]; male, CD-1, mouse, in vivo, plasma, Oral 60 mg/kg)?
Its AUC is 47000 ng·h/mL.

And the Cmax ([5]; in vivo, brain, IP 60 mg/kg)?
Its Cmax is 79000 ± 2200 ng/g.

What about the Cmax ([5]; in vivo, brain, Oral 60 mg/kg) of the same compound?
The Cmax was 39000 ± 2700 ng/g.

And the Cmax ([5]; in vivo, plasma, IP 60 mg/kg)?
The Cmax was 20000 ± 1200 ng/mL.

And the Cmax ([5]; in vivo, plasma, Oral 60 mg/kg)?
The Cmax was 9100 ± 800 ng/mL.

What about the AUC_%Extrap_obs ([5]; plasma, IP 60 mg/kg) of the same compound?
The AUC_%Extrap_obs was 16%.

And the AUC_%Extrap_obs ([5]; plasma, Oral 60 mg/kg)?
The AUC_%Extrap_obs was 30%.
